This note sets out measurements from ChEMBL document CHEMBL1275276, “Analysis of physico-chemical properties of substrates of ABC and MFS multidrug transporters of pathogenic Candida albicans” (2010).

Activity calls are given as the source filed them. The rule behind the calls is not given here. Numbered stars: 1 amine (or outer) side, 2 acyl side, 3 side chain; on linkers, the order of the positions; unused ones are H or OH. Bridge positions count the residues as written; N and C are the ends. Square brackets hold non-standard residues; d marks the D form. Peptide text beside a SMILES is read from it. I, II: the chains in the order shown. Actinocin(1to9) = Cc1c2oc3c(C)ccc(C(=O)[*:2])c3nc-2c(C(=O)[*:1])c(N)c1=O; NMeV = CN[C@H](C(=O)O)C(C)C; Sar = CNCC(=O)O

For test [1], the system named is Candida albicans. The test is described as follows: Binding affinity to Candida albicans CaCdr1p expressed in yeast AD1-8u.
For test [2], the system named is Saccharomyces cerevisiae. The test is described as follows: Antifungal activity against yeast AD1-8u expressing Candida albicans CaCdr1p by agar disk diffusion assay. It is filed as functional.
Test [3] has as its system Saccharomyces cerevisiae. Description: Antifungal activity against yeast AD1-8u expressing Candida albicans CaMdr1p by agar disk diffusion assay. Note: test concentration or dose not given here. In kind it is functional.
The test system of test [4] is Candida albicans. The test is described as follows: Binding affinity to Candida albicans CaMdr1p expressed in yeast AD1-8u.
Throughout, for IZ: test concentration or dose not given here.

`CCCCCCCCCCCC[N+](C)(C)CCCS(=O)(=O)[O-]`: the result in test [1] was inactive. Also, the “inhibition zone (IZ)” value in test [2] is 0.2 cm; in test [3], 0.8 cm. For the same compound, the result in test [4] was Active.

Take `CCCCCCCCCCCC(=O)OCCN(C)C`: the outcome in test [1] was Active. The “inhibition zone (IZ)” value in test [2] is on record as 0.4 cm; in test [3] it was 0.2 cm. The result in test [4] was inactive.

As to `CCCCCCCCCCCC(=O)OCCN(CC)CC`, the outcome in test [1] was inactive. In addition, the “inhibition zone (IZ)” value was 0.2 cm in test [2] and 0.7 cm in test [3]. Also, the outcome in test [4] was Active.

As for `CCCCCCCCCCCCn1cncn1`, the outcome in test [1] was Active. Moreover, the “inhibition zone (IZ)” value in test [2] is recorded as 0.7 cm; in test [3] it was 0.1 cm. In addition, the result in test [4] was inactive.

With `CN[C@H]1C[C@@H](N)[C@H](O)[C@@H](O[C@@H]2O[C@H](CO)[C@H](O)[C@H]3O[C@@]4(O[C@H]23)O[C@H]([C@H](N)CO)[C@H](O)[C@H](O)[C@H]4O)[C@@H]1O`, the result in test [1] and in test [4] was inactive. The “inhibition zone (IZ)” value in test [2] and in test [3] was 0 cm throughout.

As to `CCCCCCCCCCCCCC(=O)OCCN(C)C`, the result in test [1] and in test [4] was inactive. For the same compound, the “inhibition zone (IZ)” value in test [2] and in test [3] was 0 cm in each case.

In the case of `COc1ccc(CCN(C)CCCC(C#N)(c2ccc(OC)c(OC)c2)C(C)C)cc1OC` (configuration not stated), the outcome in test [1] was Active. The “inhibition zone (IZ)” value in test [2] is given as 0.9 cm; in test [3] it was 0 cm. In addition, in test [4], the result was inactive.

On to `CCN(CC)C(=S)SSC(=S)N(CC)CC`, for which the result in test [1] and in test [4] was Active. Further, the “inhibition zone (IZ)” value in test [2] was 0.4 cm; in test [3], 0.3 cm.

On to `O=[N+]([O-])c1cc[n+]([O-])c2ccccc12` [4-NITROQUINOLINE-1-OXIDE], for which the outcome in test [1] and in test [4] was Active. Further, the “inhibition zone (IZ)” value in test [2] was found to be 0.3 cm; in test [3], 0.4 cm.

Regarding `c1ccc(CNc2ncnc3[nH]cnc23)cc1` [6-BENZYLAMINOPURINE], the result in test [1] and in test [4] was inactive. Besides, the “inhibition zone (IZ)” value in test [2] and in test [3] was 0 cm throughout.

Take `COc1ccc(C[C@H]2NC[C@H](O)[C@H]2OC(C)=O)cc1` [ANISOMYCIN]: the result in test [1] and in test [4] was Active. In addition, the figures for the “inhibition zone (IZ)” value in test [2] and in test [3] were 0.9 cm and 0.7 cm, respectively.

Regarding `CCCCNC(=O)n1c(NC(=O)OC)nc2ccccc21` [BENOMYL], the result in test [1] and in test [4] was Active. Further, the results for the “inhibition zone (IZ)” value in test [2] and in test [3] were 0.9 cm and 0.4 cm, respectively.

On to `COc1ccc2cc3[n+](cc2c1OC)CCc1cc2c(cc1-3)OCO2.[Cl-]` [BERBERINE CHLORIDE], for which the result in test [1] was Active. Also, the “inhibition zone (IZ)” value in test [2] came out at 0.5 cm; in test [3], 0 cm. Further, the result in test [4] was inactive.

Consider `N#CC(C#N)=NNc1cccc(Cl)c1` [CARBONYL CYANIDE M-CHLOROPHENYLHYDRAZONE], for which the outcome in test [1] and in test [4] was inactive. The “inhibition zone (IZ)” value in test [2] and in test [3] was 0 cm in each case.

In the case of `O=C(N[C@H](CO)[C@H](O)c1ccc([N+](=O)[O-])cc1)C(Cl)Cl` [CHLORAMPHENICOL], in test [1], the result was Active. Moreover, the results for the “inhibition zone (IZ)” value in test [2] and in test [3] were 0.8 cm and 0 cm, respectively. For the same compound, in test [4], the result was inactive.

Turning to `CON(C)C(=O)Nc1ccc(Br)c(Cl)c1` [CHLORBROMURON], in test [1], the outcome was Active. The “inhibition zone (IZ)” value in test [2] worked out at 0.9 cm; in test [3], 0.1 cm. Also, the result in test [4] was inactive.

In the case of `Clc1ccccc1C(c1ccccc1)(c1ccccc1)n1ccnc1` [CLOTRIMAZOLE], the outcome in test [1] was Active. Besides, the “inhibition zone (IZ)” value in test [2] is recorded as 0.7 cm; in test [3] it was 0 cm. Also, the outcome in test [4] was inactive.

Turning to `COc1cc2c(c(OC)c1OC)-c1ccc(OC)c(=O)cc1[C@@H](NC(C)=O)CC2` [COLCHICINE], the outcome in test [1] and in test [4] was inactive. Moreover, the “inhibition zone (IZ)” value in test [2] and in test [3] was 0 cm each time.

As for `C[C@@H]1C[C@@H]([C@H](O)CC2CC(=O)NC(=O)C2)C(=O)[C@@H](C)C1` [CYCLOHEXIMIDE], the outcome in test [1] and in test [4] was Active. In addition, the figures for the “inhibition zone (IZ)” value in test [2] and in test [3] were 1.2 cm and 0.8 cm, respectively.

Regarding `O=P1(N(CCCl)CCCl)NCCCO1` (configuration not stated) [CYCLOPHOSPHAMIDE ANHYDROUS], the outcome in test [1] and in test [4] was inactive. For the same compound, the “inhibition zone (IZ)” value in test [2] and in test [3] was 0 cm in each case.

`Cc1c2oc3c(C)ccc(C(=O)N[C@@H]4C(=O)N[C@H](C(C)C)C(=O)N5CCC[C@H]5C(=O)N(C)CC(=O)N(C)[C@@H](C(C)C)C(=O)O[C@@H]4C)c3nc-2c(C(=O)N[C@@H]2C(=O)N[C@H](C(C)C)C(=O)N3CCC[C@H]3C(=O)N(C)CC(=O)N(C)[C@@H](C(C)C)C(=O)O[C@@H]2C)c(N)c1=O` [DACTINOMYCIN] (I: T[dV]P[Sar][NMeV] / II: T[dV]P[Sar][NMeV]; ester I:1-I:C, II:1-II:C; linker I:N-II:N via Actinocin(1to9)): the outcome in test [1] was inactive. Besides, the figures for the “inhibition zone (IZ)” value in test [2] and in test [3] were 0.1 cm and 0.3 cm, respectively. Moreover, in test [4], the result was Active.

With `COc1cccc2c1C(=O)c1c(O)c3c(c(O)c1C2=O)C[C@@](O)(C(C)=O)C[C@@H]3O[C@H]1C[C@H](N)[C@H](O)[C@H](C)O1` [DAUNORUBICIN], the outcome in test [1] was Active. Besides, the “inhibition zone (IZ)” value in test [2] was found to be 0.5 cm; in test [3] it was 0 cm. In addition, in test [4], the outcome was inactive.

As to `CN(C)C(=O)Nc1ccc(Cl)c(Cl)c1` [DCMU], the outcome in test [1] and in test [4] was Active. The “inhibition zone (IZ)” value in test [2] and in test [3] was 0.8 cm each time.

As for `C[C@@H]1C[C@H]2[C@@H]3CCC4=CC(=O)C=C[C@]4(C)[C@@]3(F)[C@@H](O)C[C@]2(C)[C@@]1(O)C(=O)CO` [DEXAMETHASONE], in test [1], the result was Active. Besides, the “inhibition zone (IZ)” value stood at 0.9 cm in test [2] and 0 cm in test [3]. For the same compound, the result in test [4] was inactive.

With `COc1cccc2c1C(=O)c1c(O)c3c(c(O)c1C2=O)C[C@@](O)(C(=O)CO)C[C@@H]3O[C@H]1C[C@H](N)[C@H](O)[C@H](C)O1` [DOXORUBICIN], the outcome in test [1] and in test [4] was Active. For the same compound, the “inhibition zone (IZ)” value in test [2] is reported as 0.4 cm; in test [3], 0.3 cm.

Consider `C[C@]12CC[C@@H]3c4ccc(OS(=O)(=O)O)cc4CC[C@H]3[C@@H]1CCC2=O` [ESTRONE SULFURIC ACID], for which the outcome in test [1] and in test [4] was inactive. Moreover, the “inhibition zone (IZ)” value in test [2] and in test [3] was 0 cm throughout.

In the case of `COc1cc([C@@H]2c3cc4c(cc3[C@@H](O[C@@H]3O[C@@H]5CO[C@@H](C)O[C@H]5[C@H](O)[C@H]3O)[C@H]3COC(=O)[C@H]23)OCO4)cc(OC)c1O` [ETOPOSIDE], the outcome in test [1] and in test [4] was Active. The “inhibition zone (IZ)” value in test [2] is recorded as 1.5 cm; in test [3], 0.3 cm.

Turning to `OC(Cn1cncn1)(Cn1cncn1)c1ccc(F)cc1F` [FLUCONAZOLE], the outcome in test [1] and in test [4] was Active. The “inhibition zone (IZ)” value in test [2] was determined as 2.3 cm; in test [3] it was 1.6 cm.

On to `Nc1nc(=O)[nH]cc1F` [FLUCYTOSINE], for which the outcome in test [1] and in test [4] was inactive. For the same compound, the “inhibition zone (IZ)” value in test [2] and in test [3] was 0 cm each time.

Regarding `OCCN1CCN(CCCN2c3ccccc3Sc3ccc(C(F)(F)F)cc32)CC1` [FLUPHENAZINE], in test [1], the outcome was Active. For the same compound, the “inhibition zone (IZ)” value in test [2] worked out at 0.3 cm; in test [3], 0.2 cm. For the same compound, in test [4], the outcome was inactive.

With `COc1ccc2c3c([nH]c2c1)[C@H](C=C(C)C)N1C(=O)[C@@H]2CCCN2C(=O)[C@@H]1C3` [FUMITREMORGIN], the outcome in test [1] and in test [4] was inactive. In addition, the “inhibition zone (IZ)” value in test [2] and in test [3] was 0 cm throughout.

Consider `COc1cc2ncnc(Nc3ccc(F)c(Cl)c3)c2cc1OCCCN1CCOCC1` [GEFITINIB], for which the outcome in test [1] was Active. The “inhibition zone (IZ)” value in test [3] was determined as 0.2 cm. Besides, in test [4], the outcome was inactive.

As to `c1c[nH]cn1` [IMIDAZOLE], the outcome in test [1] and in test [4] was inactive. Moreover, the “inhibition zone (IZ)” value in test [2] and in test [3] was 0 cm throughout.

Regarding `COc1ccc2c(c1)c(CC(=O)O)c(C)n2C(=O)c1ccc(Cl)cc1` [INDOMETHACIN], the result in test [1] and in test [4] was inactive. Moreover, the “inhibition zone (IZ)” value in test [2] and in test [3] was 0 cm in each case.

As for `CC(=O)N1CCN(c2ccc(OCC3COC(Cn4ccnc4)(c4ccc(Cl)cc4Cl)O3)cc2)CC1` (configuration not stated) [KETOCONAZOLE], in test [1], the result was Active. Also, in test [2], the “inhibition zone (IZ)” value was 1.4 cm.
